In patent US6518260B1, “(α-aminophosphino) peptide derivatives, method for making same and therapeutic applications thereof” (Institut National de la Sante et de la Recherche Medicale …, priority 1996, dated 2003):

melting point [°C]	SMILES
210	NC(Cc1ccccc1)P(=O)(O)CC(Cc1ccccc1)C(=O)N[C@@H](Cc1ccccc1)C(=O)OCc1ccccc1.O=C(O)C(F)(F)F (stereo partly shown)
192	NC(Cc1ccccc1)P(=O)(CC(Cc1ccccc1)C(=O)N[C@@H](Cc1ccccc1)C(=O)OCc1ccccc1)OCc1ccccc1.O=CO (stereo partly shown)
205	CC(N)P(=O)(O)CC(Cc1ccc(-c2ccccc2)cc1)C(=O)N[C@@H](C)C(=O)OCc1ccccc1.O=C(O)C(F)(F)F (stereo partly shown)
240	Br.NC(Cc1ccccc1)P(=O)(O)CC(Cc1ccccc1)C(=O)N[C@H](CC(=O)O)Cc1ccccc1 (stereo partly shown)
